Among the test systems are UACC-62 melanoma; SK-MEL-2 melanoma; ACHN renal; SR leukemia; M14 melanoma; SK-MEL-5 melanoma; NCI-H23 lung; OVCAR-3 ovarian; CAKI-1 renal; NCI/ADR-RES ovarian; SF-268 CNS; MDA-MB-231 breast; SF-295 CNS; EKVX NSCLC; CCRF-CEM leukemia; 786-0 renal; A498 renal; RXF 393 renal; PC-3 prostate; SNB-75 CNS.
Holding throughout (assay): inhibition of tumour cell growth, NCI panel, 48 h

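48-hour exposure; five concentrations; linearly interpolated endpoints. TGI is the concentration that stops growth completely.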

For `CN1C(=O)CC2CCC(=O)N2c2cccnc21` (stereo not given), the TGI in the assay on UACC-62 melanoma, with SK-MEL-2 melanoma, in the assay on ACHN renal, in the assay on SR leukemia, in the assay on M14 melanoma and in the assay with SK-MEL-5 melanoma was more than 100 µM throughout. Also, the TGI in the assay with NCI-H23 lung, in the assay with OVCAR-3 ovarian, in the assay on CAKI-1 renal, with NCI/ADR-RES ovarian, in the assay on SF-268 CNS and in the assay with MDA-MB-231 breast was more than 100 µM throughout. The TGI in the assay on SF-295 CNS, in the assay with EKVX NSCLC, in the assay with CCRF-CEM leukemia and with 786-0 renal was more than 100 µM in each case.

Consider `Cc1c(N2C(=O)/C(=C/c3ccc(N(CCC#N)CCC#N)cc3)N=C2c2ccccc2)c(=O)n(-c2ccccc2)n1C`, for which the TGI in the assay with A498 renal, in the assay on UACC-62 melanoma, in the assay on SK-MEL-2 melanoma, with SR leukemia, with M14 melanoma and with SK-MEL-5 melanoma was more than 100 µM throughout. In addition, the TGI with NCI-H23 lung, with RXF 393 renal, in the assay with OVCAR-3 ovarian, in the assay with CAKI-1 renal, with NCI/ADR-RES ovarian and in the assay on SF-268 CNS was more than 100 µM each time. Besides, the TGI with MDA-MB-231 breast, in the assay on SF-295 CNS, in the assay with EKVX NSCLC, in the assay with CCRF-CEM leukemia and with 786-0 renal was more than 100 µM in each case.

In the case of `CC1(C)OC[C@@H](O)[C@H](Br)CO1`, the TGI in the assay on A498 renal, with UACC-62 melanoma, with SK-MEL-2 melanoma, with ACHN renal, with SR leukemia and with M14 melanoma was more than 100 µM throughout. Besides, the TGI in the assay on NCI-H23 lung, in the assay with RXF 393 renal, in the assay on OVCAR-3 ovarian, in the assay on CAKI-1 renal, in the assay on SF-268 CNS and in the assay with PC-3 prostate was more than 100 µM each time. Moreover, the TGI with MDA-MB-231 breast, with SF-295 CNS, in the assay on SNB-75 CNS, in the assay on EKVX NSCLC, in the assay on CCRF-CEM leukemia and in the assay on 786-0 renal was more than 100 µM throughout.

Turning to `CCOC(=O)C1([Se]c2ccccc2)CCCC1=O` (stereo not given), the TGI in the assay on A498 renal was more than 100 µM; with UACC-62 melanoma, 35.2 µM; in the assay on SK-MEL-2 melanoma it was more than 100 µM; with ACHN renal, 43.2 µM; in the assay with SR leukemia, 47.5 µM; with M14 melanoma it was 47.2 µM. Also, the TGI with SK-MEL-5 melanoma is 58 µM; in the assay on NCI-H23 lung, 33.4 µM; in the assay on RXF 393 renal, 21.3 µM; in the assay with OVCAR-3 ovarian, 98 µM; in the assay on CAKI-1 renal, more than 100 µM; in the assay on SF-268 CNS it was 27.4 µM. The TGI was more than 100 µM in the assay with SF-295 CNS; 69.1 µM in the assay on SNB-75 CNS; 86.8 µM in the assay with EKVX NSCLC; 56.8 µM with CCRF-CEM leukemia; 28.4 µM with 786-0 renal.

For the compound `COc1ccc2nc3n(c2c1)C(=O)c1ccccc1-3`, the TGI in the assay on UACC-62 melanoma, in the assay with SK-MEL-2 melanoma, in the assay on ACHN renal, in the assay with SR leukemia, with M14 melanoma and with SK-MEL-5 melanoma was more than 100 µM each time. Moreover, the TGI in the assay with NCI-H23 lung, with RXF 393 renal, in the assay on OVCAR-3 ovarian, with CAKI-1 renal, in the assay with NCI/ADR-RES ovarian and in the assay with SF-268 CNS was more than 100 µM in each case. Moreover, the TGI with PC-3 prostate, with SF-295 CNS, in the assay with SNB-75 CNS, in the assay with EKVX NSCLC, with CCRF-CEM leukemia and with 786-0 renal was more than 100 µM each time.

For `O=C1C2C3C=C4c5ccccc5N(c5ccccc5)C4(C2C(=O)N1c1ccc(Br)cc1)[C@H]1C(=O)N(c2ccc(Br)cc2)C(=O)[C@@H]31` (stereo not given in full), the TGI with A498 renal, in the assay on UACC-62 melanoma, in the assay on SK-MEL-2 melanoma, in the assay on SR leukemia, with M14 melanoma and in the assay on SK-MEL-5 melanoma was more than 100 µM throughout. Further, the TGI was more than 100 µM in the assay on NCI-H23 lung; more than 100 µM in the assay on RXF 393 renal; more than 100 µM in the assay on OVCAR-3 ovarian; 81.5 µM in the assay with CAKI-1 renal; more than 100 µM in the assay on SF-295 CNS; more than 100 µM in the assay on SNB-75 CNS. Further, the TGI in the assay with EKVX NSCLC, with CCRF-CEM leukemia and in the assay with 786-0 renal was more than 100 µM throughout.

Take `CC(=O)C(=[N+]=[N-])C(=O)N(C)CCC#N`: the TGI in the assay with A498 renal, in the assay with UACC-62 melanoma, in the assay with SK-MEL-2 melanoma, in the assay with ACHN renal, with SR leukemia and in the assay with M14 melanoma was more than 10 µM in each case. Moreover, the TGI in the assay with NCI-H23 lung, in the assay on RXF 393 renal, in the assay with OVCAR-3 ovarian, in the assay with SF-268 CNS, in the assay with PC-3 prostate and in the assay with MDA-MB-231 breast was more than 10 µM in each case. Further, the TGI with SF-295 CNS was more than 10 µM; in the assay with SNB-75 CNS it was 3.39 µM; with EKVX NSCLC it was more than 10 µM; in the assay with CCRF-CEM leukemia, more than 10 µM; with 786-0 renal it was more than 10 µM.

Consider `CC1C2=C(CCCC2=O)N(c2ccc(Cl)cc2)C2=C1C(=O)CCC2`, for which the TGI with A498 renal, with UACC-62 melanoma, in the assay on ACHN renal, in the assay with SR leukemia, in the assay with M14 melanoma and in the assay on SK-MEL-5 melanoma was more than 100 µM in each case. For the same compound, the TGI with NCI-H23 lung was more than 100 µM; in the assay on RXF 393 renal, 78.4 µM; in the assay with OVCAR-3 ovarian, more than 100 µM; with CAKI-1 renal it was more than 100 µM; with NCI/ADR-RES ovarian, more than 100 µM; in the assay with SF-268 CNS, more than 100 µM. The TGI in the assay with PC-3 prostate, with SNB-75 CNS, in the assay on EKVX NSCLC, in the assay with CCRF-CEM leukemia and in the assay on 786-0 renal was more than 100 µM each time.

The values are drawn from PubChem BioAssay (NCI).
